Assay results from PMC1382195 (The Journal of General Physiology, 2005).

Legend:
[1] = target: T1, cystic fibrosis transmembrane conductance regulator (ΔR-CFTR) (Homo sapiens, UniProt P13569, DEL634-836); assay: excised inside-out patch-clamp, single-channel Po versus [ATP]; format: biochemical
[2] = target: T1, cystic fibrosis transmembrane conductance regulator (ΔR-CFTR); assay: excised inside-out patch-clamp; format: biochemical

T1 sequence (P13569 1-633, stated change not applied): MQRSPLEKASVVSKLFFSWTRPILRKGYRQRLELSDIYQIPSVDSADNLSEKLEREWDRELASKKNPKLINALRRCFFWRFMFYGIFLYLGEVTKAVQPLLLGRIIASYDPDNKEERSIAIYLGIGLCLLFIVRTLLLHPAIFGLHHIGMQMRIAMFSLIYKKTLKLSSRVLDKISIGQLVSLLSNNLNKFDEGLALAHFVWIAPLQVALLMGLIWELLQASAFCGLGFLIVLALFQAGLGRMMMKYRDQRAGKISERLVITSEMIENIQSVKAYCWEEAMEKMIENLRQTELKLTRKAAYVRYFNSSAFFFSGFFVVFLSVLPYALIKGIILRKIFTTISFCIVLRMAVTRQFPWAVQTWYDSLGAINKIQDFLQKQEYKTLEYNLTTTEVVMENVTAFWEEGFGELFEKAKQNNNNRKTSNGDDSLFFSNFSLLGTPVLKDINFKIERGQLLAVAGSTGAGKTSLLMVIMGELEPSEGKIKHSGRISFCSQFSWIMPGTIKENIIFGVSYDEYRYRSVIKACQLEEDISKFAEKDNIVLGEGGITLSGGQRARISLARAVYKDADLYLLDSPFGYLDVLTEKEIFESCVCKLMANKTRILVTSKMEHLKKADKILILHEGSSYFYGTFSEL
T1 sequence (P13569 837-1480, stated change not applied): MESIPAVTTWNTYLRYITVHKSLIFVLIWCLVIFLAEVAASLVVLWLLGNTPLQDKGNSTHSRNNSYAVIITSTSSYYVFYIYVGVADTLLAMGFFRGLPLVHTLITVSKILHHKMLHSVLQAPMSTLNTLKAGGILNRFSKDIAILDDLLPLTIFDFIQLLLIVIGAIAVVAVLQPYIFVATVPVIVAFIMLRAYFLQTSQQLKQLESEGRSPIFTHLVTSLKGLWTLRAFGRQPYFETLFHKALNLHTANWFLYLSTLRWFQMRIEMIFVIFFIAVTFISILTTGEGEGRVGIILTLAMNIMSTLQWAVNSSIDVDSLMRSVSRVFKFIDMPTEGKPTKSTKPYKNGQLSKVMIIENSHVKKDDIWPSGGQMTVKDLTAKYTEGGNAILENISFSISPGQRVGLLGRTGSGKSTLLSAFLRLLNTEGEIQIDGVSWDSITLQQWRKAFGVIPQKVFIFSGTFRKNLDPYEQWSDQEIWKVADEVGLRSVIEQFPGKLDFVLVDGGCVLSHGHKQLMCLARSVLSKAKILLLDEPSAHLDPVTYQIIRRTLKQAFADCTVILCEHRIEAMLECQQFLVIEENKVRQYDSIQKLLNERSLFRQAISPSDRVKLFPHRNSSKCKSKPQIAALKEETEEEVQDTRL

| SMILES | EC50 [1] | Ki [2] |
| --- | --- | --- |
| Nc1ncnc2c1ncn2[C@@H]1O[C@H](COP(=O)(O)OP(=O)(O)OP(=O)(O)O)[C@@H](O)[C@H]1O [ATP] | 89 ± 25 µM | – |
| Nc1ncnc2c1ncn2[C@@H]1O[C@H](COP(=O)(O)OP(=O)(O)O)[C@@H](O)[C@H]1O [ADP] | – | 26.3 ± 5.1 µM |
